{"source": "paper PMC8480901", "about": "(PLoS ONE, 2021)", "key": {"[1]": {"test_system": "IL-8–activated human neutrophils", "test": "Chemotaxis of IL-8–activated human neutrophils (transwell, CellTiter Glo)", "type": "cell-based", "conditions": "for Neutrophilic chemotaxis, RLU, Mean / Neutrophilic chemotaxis: % reduction / Neutrophilic chemotaxis, RLU, single replicates: IL-8; for Neutrophilic chemotaxis, RLU, single replicates: listed as Ref", "from_the_text": "Buffy coat (blood sample fraction comprising white blood cells and platelets) from whole blood was obtained from a healthy adult volunteer at the Croatian Institute of Transfusion Medicine (CITM; Zagreb, Croatia). The CITM ethics committee approved the blood collection process, and the volunteer provided written informed consent prior to blood collection. Neutrophils were isolated from the buffy coat, an aliquot of which was used for cell counting via hematologic analyzer (X500i; Sysmex). […] The diluted buffy coat was drawn into sterile 50-mL syringes and incubated for 30 minutes at RT. Following incubation, the upper layer of leukocyte-rich plasma (35 mL) was decanted into a new sterile 50-mL conical centrifuge tube, carefully layered onto 15 mL of Lymphoprep (Axis-Shield Diagnostics, Ltd., Dundee, UK) and centrifuged at 400×g (brake turned off) for 35 minutes at RT. The supernatant and mononuclear ring were discarded, and the pellet was resuspended in 10 mL of cold sterile MilliQ water. […] Resuspended neutrophils were counted via Sysmex X500i hematologic analyzer.\nAll test compounds were reconstituted in DMSO (Sigma-Aldrich Chemie GmbH) to 100-mM stock concentrations, taking into consideration and correcting for salt and purity. A 30-mM stock solution of reference compound Sch527123 (MedChemExpress, Monmouth Junction, NJ, USA) was diluted to 10 mM with DMSO.\nDMSO was used as vehicle. […] The reference compound was tested at concentrations of 0.003, 0.01, 0.03, 0.1, 0.3, 1, 3, and 10 μM. All compounds were tested in triplicate, and the final DMSO concentration was 0.1% per well.\nTest and reference compound working solutions were then added (20 μL/well) for a 10-fold dilution to final testing concentrations. Compounds and cells were mixed by gentle pipetting, and the plate was pre-incubated for 30 minutes at RT with gentle mixing by pipetting.\nNegative control wells received 180 μL of migration medium alone. To all wells, 20 μL of compound working solutions or DMSO vehicle was added. Once pre-incubation of cells with compounds was complete, the transwell inserts were carefully placed on the receiver plate, with caution to avoid air bubble formation, which could prevent cell migration. To the upper wells, 75 μL of cell suspension (375,000 cells/well) was added, taking care not to tear the membrane with pipette tips.\nAfter incubation, the number of cells that migrated to the lower wells was quantified by removing the Transwell insert and adding 200 μL of CellTiter Glo reagent (CellTiter-Glo Luminescent Cell Viability Assay, Promega, Madison, WI, USA) to each lower well to quantify the amount of adenosine triphosphate (ATP) present, signaling the presence of metabolically active cells. The plate was incubated for 10 minutes in the dark at RT, followed by transferring 150 μL of solution into wells of a white 96-well plate (Lumitrac 200; Greiner Bio-One International GmbH, Kremsmunster, Austria).\nFor the chemotaxis and cytotoxicity evaluations, average relative light unit values were calculated from all untreated vehicle samples and, for each sample, percentage of vehicle value was calculated. The tested compound was considered cytotoxic if reduction from untreated vehicle was ≥20%."}, "[2]": {"test_system": "methicillin-resistant Staphylococcus aureus wound infection", "set-up": "method as in PMID 32079232", "conditions": "MRSA wound infection mouse model; cited from earlier work"}, "[3]": {"test_system": "LPS-induced acute lung injury", "conditions": "cited from earlier work"}, "[4]": {"test_system": "murine RAW 264.7 macrophages", "conditions": "cited from earlier work"}}, "note": "Where “and” joins values, the source holds several entries; their conditions need not be identical. Equal entries are not always repeated."}
{"smiles": "CC[C@@H](Nc1c(Nc2cccc(C(=O)N(C)C)c2O)c(=O)c1=O)c1ccc(C)o1", "note": "[Sch527123]", "values": [{"measurement": "IL-8–induced chemotaxis of human neutrophils", "setting": "[1]; 0.003 to 10 μM", "result": "dose-dependent inhibition"}, {"measurement": "Neutrophilic chemotaxis, RLU, Mean", "setting": "[1]; 0.003 µM", "result": 136013, "unit": "RLU"}, {"measurement": "Neutrophilic chemotaxis: % reduction", "setting": "[1]; 0.003 µM", "result": -2.55, "unit": "%"}, {"measurement": "Neutrophilic chemotaxis, RLU, single replicates", "setting": "[1]; 0.003 µM", "result": "126680 RLU and 141280 RLU and 140080 RLU"}, {"measurement": "Neutrophilic chemotaxis, RLU, Mean", "setting": "[1]; 0.01 µM", "result": 145907, "unit": "RLU"}, {"measurement": "Neutrophilic chemotaxis: % reduction", "setting": "[1]; 0.01 µM", "result": -11, "unit": "%"}, {"measurement": "Neutrophilic chemotaxis, RLU, single replicates", "setting": "[1]; 0.01 µM", "result": "164560 RLU and 147560 RLU and 125600 RLU"}, {"measurement": "Neutrophilic chemotaxis, RLU, Mean", "setting": "[1]; 0.03 µM", "result": 131720, "unit": "RLU"}, {"measurement": "Neutrophilic chemotaxis: % reduction", "setting": "[1]; 0.03 µM", "result": 1.09, "unit": "%"}, {"measurement": "Neutrophilic chemotaxis, RLU, single replicates", "setting": "[1]; 0.03 µM", "result": "131800 RLU and 131640 RLU"}, {"measurement": "Neutrophilic chemotaxis, RLU, Mean", "setting": "[1]; 0.1 µM", "result": 87493, "unit": "RLU"}, {"measurement": "Neutrophilic chemotaxis: % reduction", "setting": "[1]; 0.1 µM", "result": 39, "unit": "%"}, {"measurement": "Neutrophilic chemotaxis, RLU, single replicates", "setting": "[1]; 0.1 µM", "result": "83280 RLU and 83800 RLU and 95400 RLU"}, {"measurement": "Neutrophilic chemotaxis, RLU, Mean", "setting": "[1]; 0.3 µM", "result": 34307, "unit": "RLU"}, {"measurement": "Neutrophilic chemotaxis: % reduction", "setting": "[1]; 0.3 µM", "result": 84, "unit": "%"}, {"measurement": "Neutrophilic chemotaxis, RLU, single replicates", "setting": "[1]; 0.3 µM", "result": "34560 RLU and 36480 RLU and 31880 RLU"}, {"measurement": "Neutrophilic chemotaxis, RLU, Mean", "setting": "[1]; 1 µM", "result": 20080, "unit": "RLU"}, {"measurement": "Neutrophilic chemotaxis: % reduction", "setting": "[1]; 1 µM", "result": 96, "unit": "%"}, {"measurement": "Neutrophilic chemotaxis, RLU, single replicates", "setting": "[1]; 1 µM", "result": "21040 RLU and 22120 RLU and 17080 RLU"}, {"measurement": "Neutrophilic chemotaxis, RLU, Mean", "setting": "[1]; 3 µM", "result": 18067, "unit": "RLU"}, {"measurement": "Neutrophilic chemotaxis: % reduction", "setting": "[1]; 3 µM", "result": 97, "unit": "%"}, {"measurement": "Neutrophilic chemotaxis, RLU, single replicates", "setting": "[1]; 3 µM", "result": "19800 RLU and 19160 RLU and 15240 RLU"}, {"measurement": "Neutrophilic chemotaxis, RLU, Mean", "setting": "[1]; 10 µM", "result": 19573, "unit": "RLU"}, {"measurement": "Neutrophilic chemotaxis: % reduction", "setting": "[1]; 10 µM", "result": 96, "unit": "%"}, {"measurement": "Neutrophilic chemotaxis, RLU, single replicates", "setting": "[1]; 10 µM", "result": "21800 RLU and 20760 RLU and 16160 RLU"}]}
{"smiles": "C=C[C@]1(C)C[C@@H](OC(=O)CSc2ccccc2N)[C@]2(C)[C@H](C)CC[C@]3(CCC(=O)[C@H]32)[C@@H](C)[C@@H]1O", "note": "[amphenmulin, 22-(2-amino-phenylsulfanyl)-22-deoxypleuromutilin]", "values": [{"measurement": "TNF-α, IL-6, and CCL-2 serum levels", "setting": "[2]", "result": "significantly reduced"}]}
{"smiles": "CC[C@H]1OC(=O)[C@H](C)[C@@H](O[C@H]2C[C@@](C)(OC)[C@@H](O)[C@H](C)O2)[C@H](C)[C@@H](O[C@@H]2O[C@H](C)C[C@H](N(C)C)[C@H]2O)[C@](C)(OC)C[C@@H](C)C(=O)[C@H](C)[C@@H](O)[C@]1(C)O", "note": "[clarithromycin]", "values": [{"measurement": "neutrophil recruitment", "setting": "[3]; pretreatment in LPS-induced acute lung injury models", "result": "significantly reduced"}]}
{"smiles": "C=C[C@]1(C)C[C@@H](OC(=O)CSC(C)(C)CNC(=O)[C@H](N)C(C)C)[C@]2(C)[C@H](C)CC[C@]3(CCC(=O)[C@H]32)[C@@H](C)[C@@H]1O", "note": "[valnemulin]", "values": [{"measurement": "LPS-induced pulmonary edema, accumulation of inflammatory cells in BALF, and increased inflammatory cytokines (eg, TNF-α and IL-6)", "setting": "[3]; pretreated mice vs no-treatment control group", "result": "significantly attenuated"}, {"measurement": "LPS-induced production of inflammatory mediators, including nitric oxide, prostaglandin E2, TNF-α, and IL-6", "setting": "[4]", "result": "significantly inhibited"}]}
